Reference: patent US20250145610A1, “CRYSTALLINE FORM OF ISAVUCONAZONIUM SULFATE AND A PROCESS FOR ITS PREPARATION” (Glenmark Life Sciences Limited, priority 2022, published 2025)
Where a name gives a salt, the structure may show the parent alone.

Assay: Stability study of crystalline vs amorphous isavuconazonium sulfate: impurity content by HPLC after storage
Type: physicochemical
Conditions: for Impurity Compound IV content / Impurity Compound IX content / Impurity Compound VI content / Impurity Compound VII content / Impurity Compound VIII content / Impurity Compound X content: HPLC; for Storage stability (in words): 3 months at −20° C. and 2° to 8° C.
Protocol: High performance liquid chromatography (HPLC) was performed with the conditions described below for detecting chemical purity:
Column: Xterra MS C18, 150×4.6 mm, 3.5μ; Column Temperature: 45° C., Mobile phase: Mobile Phase A; 0.1% Perchloric acid in water: Mobile Phase B=Methanol
Diluent: Methanol: 0.3% Sodium bisulphate (70:30 v/v); Flow Rate: 1.0 mL/Minutes, Detection: 260 nm; Injection Volume: 20 μL.
Comparative stability data was generated for crystalline isavuconazonium sulfate (Form GL-1) and the amorphous form of isavuconazonium sulfate (prepared as described in Comparative Example 1) stored at a temperature of −20° C. and from 2° to 8° C. for three (3) months (i.e., 12 weeks). In particular, the crystalline isavuconazonium sulfate (Form GL-1) obtained as per Example 3 and the amorphous form of isavuconazonium sulfate of Comparative Example 1 were taken in an appropriate amount, and packed in a transparent polyethylene bag. The bag was sealed under vacuum and then enclosed in a black LDPE (Low-density polyethylene) bag which in turn is kept in triple laminated aluminium pouches sealed at three sides. The fourth side of the bag is then sealed under vacuum and kept in a HDPE (High-density polyethylene) container, and stored at −20° C. and from 2° to 8° C. for 3 months (i.e., 12 weeks). Both materials were analyzed after 3 months of storage by the HPLC method described above.

[1] = 3 Month at 2°-8° C., monosulfate salt
[2] = 3 Month at −20° C., monosulfate salt

Compound | Impurity Compound IV content [1] [%] | Impurity Compound IX content [1] [%] | Impurity Compound VI content [1] [%] | Impurity Compound VII content [1] [%] | Impurity Compound VIII content [1] [%] | Impurity Compound X content [1] [%] | Impurity Compound IV content [2] [%] | Impurity Compound IX content [2] [%] | Impurity Compound VI content [2] [%] | Impurity Compound VII content [2] [%] | Impurity Compound VIII content [2] [%] | Impurity Compound X content [2] [%] | Impurity Compound IV content (Initial, monosulfate salt) [%] | Impurity Compound IX content (Initial, monosulfate salt) [%] | Impurity Compound VI content (Initial, monosulfate salt) [%] | Impurity Compound VII content (Initial, monosulfate salt) [%] | Impurity Compound VIII content (Initial, monosulfate salt) [%] | Impurity Compound X content (Initial, monosulfate salt) [%] | also measured
CNCC(=O)OCc1cccnc1N(C)C(=O)OC(C)n1cn[n+](C[C@](O)(c2cc(F)ccc2F)[C@@H](C)c2nc(-c3ccc(C#N)cc3)cs2)c1 (stereo partly drawn) [Amorphous isavuconazonium sulfate prepared as per comparativ] [(2-{[(1-{1-[(2R,3R)-3-[4-(4-cyanophenyl)-1,3-thiazol-2-yl]-2-(2,5-difluorophenyl)-2-hydroxybutyl]-1H-1,2,4-triazol-4-ium-4-yl}ethoxy)carbonyl](methyl)amino}pyridin-3-yl)methyl-N-methylglycinate monosulfate salt, reference compound] | 0.76 | 2.5 | 0.33 | 0.12 | 0.44 | 0.04 | 0.41 | 1.26 | 0.10 | 0.12 | 0.44 | 0.03 | 0.21 | 0.51 | 0.04 | 0.12 | 0.44 | 0.03 | Stability of the solid form (in words) (generates impurities of formulae IV, VI, VII, VIII, IX, X and XI): unstable
CNCC(=O)OCc1cccnc1N(C)C(=O)OC(C)n1cn[n+](C[C@](O)(c2cc(F)ccc2F)[C@@H](C)c2nc(-c3ccc(C#N)cc3)cs2)c1 (stereo partly drawn) [Crystalline isavuconazonium sulfate (Form GL-1) of Example 3] [(2-{[(1-{1-[(2R,3R)-3-[4-(4-cyanophenyl)-1,3-thiazol-2-yl]-2-(2,5-difluorophenyl)-2-hydroxybutyl]-1H-1,2,4-triazol-4-ium-4-yl}ethoxy)carbonyl](methyl)amino}pyridin-3-yl)methyl-N-methylglycinate monosulfate salt] | 0.07 | 0.13 | 0.03 | 0.08 | 0.02 | 0.07 | 0.05 | 0.09 | 0.02 | 0.08 | 0.03 | 0.08 | 0.03 | 0.09 | 0.01 | 0.08 | 0.03 | 0.05 | Storage stability (in words) (listed as Form GL-1, monosulfate salt): more stable compared to the amorphous form of isavuconazonium sulfate; Storage stability (in words) (listed as crystalline isavuconazonium sulfate (Form GL-1), monosulfate salt): stable at 3 months; Period over which stability is maintained (stored at −20° C. and 2° to 8° C., sealed under vacuum): ≥ 3 months
